Measured values: patent US20250073348A1, “CAMPTOTHECIN CONJUGATES” (priority 2018, published 2025)

Tests used:
DEL = assay: In vitro cytotoxicity, CellTiter-Glo, 96 h; type: cell-based; details: Table 6
Experimental: (§1) In vitro potency was assessed on multiple cancer cell lines. All cell lines were authenticated by STR profiling at IDEXX Bioresearch and cultured for no more than 2 months after resuscitation. Cells cultured in log-phase growth were seeded for 24 hours in 96-well plates containing 150 μl RPMI 1640 supplemented with 20% FBS. Serial dilutions of antibody-drug conjugates in cell culture media were prepared at 4× working concentrations, and 50 μl of each dilution was added to the 96-well plates. Following addition of test articles, cells were incubated with test articles for 4 days at 37° C. After 96 hours, growth inhibition was assessed by CellTiter-Glo® (Promega, Madison, WI) and luminescence was measured on a plate reader. The EC50 value, determined in triplicate, is defined here as the concentration that results in 50% reduction in cell growth relative to untreated controls.
(§2) In the following Tables IC50 values for ADCs and CPT free drugs are given in ng/mL and […] concentrations, respectively, with parenthetic values representing percent cells remaining at the highest concentration tested (1000 ng/mL for ADCs and 1 μM for CPT free compound, unless otherwise indicated) relative to untreated cells. Cell viability was determined by CellTiter-Glo staining after 96 h exposure to ADC. ND=Not Determined. […]

[1] = system: DEL-BVR (DEL brentuximab vedotin resistant line); assay: In vitro cytotoxicity on MDR+ line, CellTiter-Glo, 96 h; type: cell-based; details: Table 6
Experimental: as §1, §2

[2] = 1000 ng/mL, relative to untreated cells

Ag2-vcMMAE (8): vcMMAE conjugate on Ag2; "Ag2 refers to cAC10, which targets the CD30 antigen"
percent cells remaining at the highest dose tested, DEL (DEL; [2]): 1% | IC50 DEL (DEL; Ag2(+) parental DEL, 96 h): 0.0005 µg/mL | percent cells remaining at the highest dose tested, DEL/BVR [1, 2]: 93% | IC50 DEL/BVR ([1]; Ag2(+), MDR(+) DEL-BVR, 96 h): >1 µg/mL
